Reference: patent US20060128721A1, “Novel formulations of opioid-based treatments of pain comprising substituted 1,4-di-piperidin-4-yl-piperazine derivatives” (priority 2003, published 2006)
Read-outs that look alike come from different tables or passages of the source.

Tests used:
[1] = system: loperamide-induced retching; assay: Antiemetic effects: loperamide-induced retching in ferrets; assay type: in vivo; details: for Ratio p.o./s.c. of ED50 for blockade of retching: p.o. (−2 h) over s.c. (−1 h)
Procedure: The antiemetic effects have been determined using the loperamide-induced retching model (i.e. retching induced by an opioid) in ferrets. To exclude species differences in antiemetic activiey, both compounds have also been tested for antiemetic activity against apomorphine in dogs.
Antagonism of emesis induced by the peripherally selective opioid loperamide (0.31 mg/kg, s.c.) was studied over a 1 h-period starting immediately after the emetic challenge in ferrets pretreated with test compound or solvent. In control animals pre-treated with solvent, loperamide induced pronounced retching (mean±SD: 95±39 counts; n=[…]) and, to a lesser extent, vomiting (5±4).

[2] = target: T1, cloned human h-NK1 receptors expressed in CHO cells (Homo sapiens, UniProt P25103); assay: Binding experiment for h-NK1 receptors ([3H]-Substance P displacement); details: read-out: h-NK1 pIC50 (converted)
T1 construct: expressed in transfected cells; host or cells: CHO cells
T1 sequence (P25103 whole entry): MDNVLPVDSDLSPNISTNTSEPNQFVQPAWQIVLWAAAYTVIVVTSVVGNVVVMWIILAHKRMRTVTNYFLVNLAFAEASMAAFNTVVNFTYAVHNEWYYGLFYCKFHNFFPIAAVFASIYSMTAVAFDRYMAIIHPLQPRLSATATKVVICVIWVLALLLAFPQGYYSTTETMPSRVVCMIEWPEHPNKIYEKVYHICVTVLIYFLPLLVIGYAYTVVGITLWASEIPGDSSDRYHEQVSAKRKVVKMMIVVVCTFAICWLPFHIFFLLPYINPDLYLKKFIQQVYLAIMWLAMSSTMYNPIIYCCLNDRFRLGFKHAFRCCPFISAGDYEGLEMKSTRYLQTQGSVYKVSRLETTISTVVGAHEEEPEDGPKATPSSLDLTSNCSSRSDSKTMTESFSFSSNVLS
Procedure: (§1) The compounds according to the invention were investigated for interaction with various neurotransmitter receptors, ion channels and transporter binding sites using the radioligand binding technique. Membranes from tissue homogenates or from cells, expressing the receptor or transporter of interests, were incubated with a radioactively labelled substance ([^3H]- or [^125I] ligand) to label a particular receptor. […] Following incubation, labelled membranes were harvested and rinsed with excessive cold buffer to remove non-bound radioactivity by rapid filtration under suction. Membrane bound radioactivity was counted in a scintillation counter and results were expressed in counts per minute (cpm).
(§2) The compounds were dissolved in DMSO and tested at 10 concentrations ranging from 10^−10 to 10^−5 M.
(§3) The ability of the compounds according to the invention to displace [^3H]-Substance P from cloned human h-NK1 receptors expressed in CHO cells, to displace [^3H]-SR-48968 from cloned human h-NK2 receptors expressed in Sf9 cells, and to displace [^3H]-SR-142801 from cloned human h-NK3 receptors expressed in CHO cells was evaluated.

[3] = target: T2, cloned human h-NK2 receptors expressed in Sf9 cells (Homo sapiens, UniProt P21452); assay: Binding experiment for h-NK2 receptors ([3H]-SR-48968 displacement); details: [3H]-SR-48968, Sf9 cells; read-out: h-NK2 pIC50 (converted)
T2 construct: expressed in transfected cells; host or cells: Sf9 cells
T2 sequence (P21452 1-398): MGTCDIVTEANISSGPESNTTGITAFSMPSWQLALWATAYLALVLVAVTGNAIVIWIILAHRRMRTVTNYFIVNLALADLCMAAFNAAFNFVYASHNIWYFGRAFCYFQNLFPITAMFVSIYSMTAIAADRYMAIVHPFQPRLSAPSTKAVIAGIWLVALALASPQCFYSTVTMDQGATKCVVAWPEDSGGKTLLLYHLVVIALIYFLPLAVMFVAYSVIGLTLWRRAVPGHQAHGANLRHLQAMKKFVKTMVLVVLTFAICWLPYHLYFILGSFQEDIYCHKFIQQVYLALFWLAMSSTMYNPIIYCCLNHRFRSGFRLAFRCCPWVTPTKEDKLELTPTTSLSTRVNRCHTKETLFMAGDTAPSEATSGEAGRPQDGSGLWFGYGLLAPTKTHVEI
Procedure: as §1, §2, §3

[4] = ferrets, loperamide 0.31 mg/kg s.c., 1 h after subcutaneous administration, blockade = 0 retches
[5] = ferrets, loperamide 0.31 mg/kg s.c., 2 h after oral administration, blockade = 0 retches
[6] = read-out: ED50 (95% confidence limits) for blockade of loperamide-induced retching, p.o. route (−2 h), ferrets, loperamide 0.31 mg/kg s.c., 2 h after oral administration, blockade = 0 retches
[7] = sc, read-out: ED50 for blockade of loperamide-induced retching, ferrets, loperamide 0.31 mg/kg s.c., 1 h after subcutaneous administration, blockade = 0 retches

C[C@@H](O[C@H]1OCCN(Cc2n[nH]c(=O)[nH]2)[C@H]1c1ccc(F)cc1)c1cc(C(F)(F)F)cc(C(F)(F)F)c1 [Aprepitant/MK-869, Aprepitant, reference compound]
ED50 for blockade of loperamide-induced retching, s.c. route (−1 h) [1, 4]: >1.25 mg/kg
ED50 (95% confidence limits) for blockade of loperamide-induced retching, p.o. route (−2 h) [1, 5]: 3.1 (1.9-5.0) mg/kg
Ratio p.o./s.c. of ED50 for blockade of retching ([1]; ferrets): <2.5

COc1ccccc1CN[C@H]1C2CCN(CC2)[C@H]1C(c1ccccc1)c1ccccc1 [CP-96345, reference compound]
ED50 ([1]; sc, 1 h, read-out: ED50 for blockade of loperamide-induced retching, s.c. route (−1 h)): > 10 mg/kg

COc1ccccc1CN[C@H]1CCCN[C@H]1c1ccccc1 [CP-99994, reference compound]
Ratio p.o./s.c. of ED50 for blockade of retching ([1]; ferrets): >16
ED50 [1, 6]: > 10 mg/kg
ED50 [1, 7]: 0.63 mg/kg

O=C(C(c1ccccc1)N1CCC(N2CCN(C3CCN(C(=O)c4cc(C(F)(F)F)cc(C(F)(F)F)c4)C(Cc4ccccc4)C3)CC2)CC1)N1CCOCC1 (stereo not shown) [Compound 6]
IC50 [2]: 1 nM

Cc1ccc(O)c(CN2CCC(N3CCN(C4CCN(C(=O)c5cc(C(F)(F)F)cc(C(F)(F)F)c5)C(Cc5ccccc5)C4)CC3)CC2)n1 (stereo not shown) [Compound 8]
IC50 [2]: 0.631 nM

O=C(c1cccc(N2CCCC2)c1)N1CCC(N2CCN([C@H]3CCN(C(=O)c4cc(C(F)(F)F)cc(C(F)(F)F)c4)[C@H](Cc4ccccc4)C3)CC2)CC1 [Compound 42]
IC50 [2]: 2.51 nM

O=C(c1cccc(C(=O)N2CCC(N3CCN([C@H]4CCN(C(=O)c5cc(C(F)(F)F)cc(C(F)(F)F)c5)[C@H](Cc5ccccc5)C4)CC3)CC2)c1)N1CCCC1 [Compound 45]
IC50 [2]: 0.316 nM

Cc1nnsc1C(=O)N1CCC(N2CCN([C@H]3CCN(C(=O)c4cc(C(F)(F)F)cc(C(F)(F)F)c4)[C@H](Cc4ccccc4)C3)CC2)CC1 [Compound 77, (2-benzyl-4-{4-[1-(4-methyl-[1,2,3]thiadiazole-5-carbonyl)-piperidin-4-yl]-piperazin-1-yl}-piperidin-I -yl)-(3,5-bis-trifluoromethyl-phenyl)-methanone]
IC50 [2]: 1 nM
IC50 [3]: 794 nM
ratio of oral ED50 (at time of peak effect) over subcutaneous ED50 (obtained at 1 h) ([1]; ferrets): 1.1
ED50 ([1]; ferrets, blockade (=0 retches), intravenous route, 1 h after administration, read-out: ED50 for blockade of loperamide-induced retching): 0.26 mg/kg
ED50 ([1]; ferrets, blockade (=0 retches), oral route, 1 h after administration, read-out: ED50 for blockade of loperamide-induced retching): 0.72 mg/kg
ED50 ([1]; ferrets, blockade (=0 retches), oral route, 2 h after administration, read-out: ED50 for blockade of loperamide-induced retching): 0.42 mg/kg
ED50 ([1]; ferrets, blockade (=0 retches), oral route, 4 h after administration, read-out: ED50 for blockade of loperamide-induced retching): 0.77 mg/kg
ED50 ([1]; ferrets, blockade (=0 retches), oral route, 8 h after administration, read-out: ED50 for blockade of loperamide-induced retching): 0.34 mg/kg
ED50 ([1]; ferrets, blockade (=0 retches), oral route, 16 h after administration, read-out: ED50 for blockade of loperamide-induced retching): 1.66 mg/kg
ED50 ([1]; ferrets, blockade (=0 retches), oral route, 32 h after administration, read-out: ED50 for blockade of loperamide-induced retching): > 2.5 mg/kg
ED50 ([1]; ferrets, inhibition (<20 retches), intravenous route, 1 h after administration, read-out: ED50 for inhibition of loperamide-induced retching): 0.15 mg/kg
ED50 ([1]; ferrets, inhibition (<20 retches), oral route, 1 h after administration, read-out: ED50 for inhibition of loperamide-induced retching): 0.31 mg/kg
ED50 ([1]; ferrets, inhibition (<20 retches), oral route, 2 h after administration, read-out: ED50 for inhibition of loperamide-induced retching): 0.08 mg/kg
ED50 ([1]; ferrets, inhibition (<20 retches), oral route, 4 h after administration, read-out: ED50 for inhibition of loperamide-induced retching): 0.26 mg/kg
ED50 ([1]; ferrets, inhibition (<20 retches), oral route, 8 h after administration, read-out: ED50 for inhibition of loperamide-induced retching): 0.29 mg/kg
ED50 ([1]; ferrets, inhibition (<20 retches), oral route, 16 h after administration, read-out: ED50 for inhibition of loperamide-induced retching): 0.73 mg/kg
ED50 ([1]; ferrets, inhibition (<20 retches), oral route, 32 h after administration, read-out: ED50 for inhibition of loperamide-induced retching): ~2.5 mg/kg
ED50 ([1]; ferrets, oral administration, time of peak effect, read-out: graphically estimated peak-effect ED50 for blockade of retching (=0 retches)): 0.34 mg/kg
duration of action ([1]; ferrets, oral, at 4 times the peak-effect dose): 16 h
Ratio p.o./s.c. of ED50 for blockade of retching ([1]; ferrets): 1.3
ED50 ([1]; iv, read-out: ED50 for blockade of retching 1 h after i.v. injection, ferrets, i.v., 1 h): 0.26 mg/kg
ED50 ([1]; iv, read-out: ED50 for inhibition of retching 1 h after i.v. injection, ferrets, i.v., 1 h): 0.15 mg/kg
ED50 [1, 6]: 0.42 mg/kg
ED50 ([1]; read-out: graphically estimated peak-effect ED50 for inhibition of retching (<20 retches), ferrets, oral administration, time of peak effect): 0.16 mg/kg
ED50 [1, 7]: 0.32 mg/kg
ED50 ([1]; sc, ferrets, blockade (=0 retches), subcutaneous route, 1 h after administration, read-out: ED50 for blockade of loperamide-induced retching): 0.32 mg/kg
ED50 ([1]; sc, ferrets, inhibition (<20 retches), subcutaneous route, 1 h after administration, read-out: ED50 for inhibition of loperamide-induced retching): 0.18 mg/kg
ED50 ([1]; sc, ferrets, s.c., 1 h, <20 retches, read-out: ED50 for inhibition of retching one hour after s.c. injection): 0.18 mg/kg
ED50 ([1]; sc, ferrets, s.c., 1 h, =0 retches, read-out: ED50 for complete blockade of retching one hour after s.c. injection): 0.32 mg/kg

Cc1nnsc1C(=O)N1CCC(N2CCN([C@H]3CCN(C(=O)c4cc(C(F)(F)F)cc(C(F)(F)F)c4)[C@H](Cc4ccccc4)C3)CC2)CC1 [Compound 78]
IC50 [2]: 0.794 nM
IC50 [3]: 398 nM

O=C(c1cncc(N2CCCC2)c1)N1CCC(N2CCN(C3CCN(C(=O)c4cc(C(F)(F)F)cc(C(F)(F)F)c4)C(Cc4ccccc4)C3)CC2)CC1 (stereo not shown) [Compound 85]
IC50 [2]: 3.16 nM

O=C(C1CCC1)N1CCC(N2CCN([C@H]3CCN(C(=O)c4cc(C(F)(F)F)cc(C(F)(F)F)c4)[C@H](Cc4ccccc4)C3)CC2)CC1 [Compound 102]
IC50 [2]: 1 nM

O=C(c1cc(C(F)(F)F)cc(C(F)(F)F)c1)N1CC[C@H](N2CCN(C3CCN(C(=O)C4(c5ccccc5)CC4)CC3)CC2)C[C@H]1Cc1ccccc1 [Compound 108]
IC50 [2]: 1.58 nM

O=C(/C=C/c1cccnc1)N1CCC(N2CCN([C@H]3CCN(C(=O)c4cc(C(F)(F)F)cc(C(F)(F)F)c4)[C@H](Cc4ccccc4)C3)CC2)CC1 [Compound 110]
IC50 [2]: 0.1 nM

Cc1nnsc1C(=O)N1CCC(N2CCN([C@H]3CCN(C(=O)c4cc(C(F)(F)F)cc(C(F)(F)F)c4)[C@H](Cc4ccccc4)C3)CC2)CC1 [Compound 142]
IC50 [2]: 1.26 nM
IC50 [3]: 631 nM

Cc1nnsc1C(=O)N1CCC(N2CCN([C@H]3CCN(C(=O)c4cc(C(F)(F)F)cc(C(F)(F)F)c4)[C@H](Cc4ccccc4)C3)CC2)CC1 [Compound 143]
IC50 [2]: 1 nM
IC50 [3]: 794 nM

C[C@@H](O[C@H]1OCCN(Cc2n[nH]nc2CN(C)C)[C@H]1c1ccc(F)cc1)c1cc(C(F)(F)F)cc(C(F)(F)F)c1 [Compound L-760735, reference compound]
ED50 for blockade of loperamide-induced retching, s.c. route (−1 h) [1, 4]: 0.31 mg/kg

COc1ccc(-n2cnnn2)cc1CN[C@H]1CCCN[C@H]1c1ccccc1 [GR-203040, (2S,3S)-(2-methoxy-5-tetrazol-1-ylbenzyl)(2-phenylpiperidin-3-yl)amine, reference compound]
Ratio p.o./s.c. of ED50 for blockade of retching ([1]; ferrets): 3.1
ED50 [1, 6]: 0.2 mg/kg
ED50 [1, 7]: 0.064 mg/kg

CN(Cc1ccccc1)C(=O)C(Cc1ccc2ccccc2c1)NC(=O)[C@@H]1CCCN1C(=O)Nc1ccccc1[N+](=O)[O-] (stereo partly drawn) [SDZ-NKT-343, 2-Nitrophenylcarbamoyl-(S)-prolyl-3-(2-naphthyl)alanyl-N-benzyl-N-methylamide, reference compound]
ED50 (95% confidence limits) for blockade of loperamide-induced retching, p.o. route (−2 h) [1, 5]: >2.5 mg/kg
